Reference: patent US20240300932A1, “N-PHENYLIMINE DERIVATIVE AND PREPARATION METHOD AND USE THEREOF” (Guizhou University, priority 2023, published 2024)

Experiments:
Experiment in all cases: Post-emergence herbicidal activity test (stem and leaf spray, pot culture)
Assay type in all cases: in vivo
Details in all cases: 3 weeks after spraying
[1] = tested on: Abutilon theophrasti
How it was run: (§1)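 Greenhouse pot-grown weeds (loam, pH 7) sprayed post-emergence at 2- to 3-leaf stage with acetone/Tween 80 formulation plus 1.5 liters/ha methyl oleate, at 10, 5 and 2.5 g/mu. Fresh-weight growth control rated 3 weeks later on 0–5 grade scale.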

[2] = tested on: Amaranthus retroflexus
How it was run: as §1

[3] = tested on: Echinochloa crusgalli
How it was run: as §1

[4] = tested on: Portulaca oleracea
How it was run: as §1

[5] = tested on: Setaria viridis
How it was run: as §1

[6] = tested on: Trifoliumre pensL.
How it was run: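 Rates of 10, 5 and 2.5 g/mu were applied in a single spray-tower treatment to 2–3-leaf plants, thinned to 10 per pot. Formulation: acetone solution, Tween 80, 1.5 L/ha methyl oleate synergist. Weed response assessed after 3 further greenhouse weeks; mean of three experiments.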

SMILES	Post-emergence herbicidal activity, A. theophrasti (grade) ([1]; dosage 2.5 g/mu)	Post-emergence herbicidal activity, A. theophrasti (grade) ([1]; dosage 5 g/mu)	Post-emergence herbicidal activity, A. theophrasti (grade) ([1]; dosage 10 g/mu)	Post-emergence herbicidal activity, A. retroflexus (grade) ([2]; dosage 2.5 g/mu)	Post-emergence herbicidal activity, A. retroflexus (grade) ([2]; dosage 5 g/mu)	Post-emergence herbicidal activity, A. retroflexus (grade) ([2]; dosage 10 g/mu)	Post-emergence herbicidal activity, E. crusgalli (grade) ([3]; dosage 2.5 g/mu)	Post-emergence herbicidal activity, E. crusgalli (grade) ([3]; dosage 5 g/mu)	Post-emergence herbicidal activity, E. crusgalli (grade) ([3]; dosage 10 g/mu)	Post-emergence herbicidal activity, P. oleracea (grade) ([4]; dosage 2.5 g/mu)	Post-emergence herbicidal activity, P. oleracea (grade) ([4]; dosage 5 g/mu)	Post-emergence herbicidal activity, P. oleracea (grade) ([4]; dosage 10 g/mu)	Post-emergence herbicidal activity, S. viridis (grade) ([5]; dosage 2.5 g/mu)	Post-emergence herbicidal activity, S. viridis (grade) ([5]; dosage 5 g/mu)	Post-emergence herbicidal activity, S. viridis (grade) ([5]; dosage 10 g/mu)	Post-emergence herbicidal activity, Trifoliumre pensL. (grade) ([6]; dosage 2.5 g/mu)	Post-emergence herbicidal activity, Trifoliumre pensL. (grade) ([6]; dosage 5 g/mu)	Post-emergence herbicidal activity, Trifoliumre pensL. (grade) ([6]; dosage 10 g/mu)
O=C1C2=C(CCCC2)C(=O)N1c1cc(OCc2nc(-c3ccco3)no2)c(Cl)cc1F [Compound A22]	5 (Grade 5: the growth control rate is greater than or equal to 85%)	5 (Grade 5: the growth control rate is greater than or equal to 85%)	5 (Grade 5: the growth control rate is greater than or equal to 85%)	5 (Grade 5: the growth control rate is greater than or equal to 85%)	5 (Grade 5: the growth control rate is greater than or equal to 85%)	5 (Grade 5: the growth control rate is greater than or equal to 85%)	1 (Grade 1: the growth control rate is greater than or equal to 5% and less than 20%)	2 (Grade 2: the growth control rate is greater than or equal to 20% and less than 40%)	3 (Grade 3: the growth control rate is greater than or equal to 40% and less than 60%)	4 (Grade 4: the growth control rate is greater than or equal to 60% and less than 85%)	5 (Grade 5: the growth control rate is greater than or equal to 85%)	5 (Grade 5: the growth control rate is greater than or equal to 85%)	2 (Grade 2: the growth control rate is greater than or equal to 20% and less than 40%)	3 (Grade 3: the growth control rate is greater than or equal to 40% and less than 60%)	4 (Grade 4: the growth control rate is greater than or equal to 60% and less than 85%)	4 (Grade 4: the growth control rate is greater than or equal to 60% and less than 85%)	5 (Grade 5: the growth control rate is greater than or equal to 85%)	5 (Grade 5: the growth control rate is greater than or equal to 85%)
Cc1cc(F)ccc1-c1noc(COc2cc(N3C(=O)C4=C(CCCC4)C3=O)c(F)cc2Cl)n1 [Compound A23]	5 (Grade 5: the growth control rate is greater than or equal to 85%)	5 (Grade 5: the growth control rate is greater than or equal to 85%)	5 (Grade 5: the growth control rate is greater than or equal to 85%)	5 (Grade 5: the growth control rate is greater than or equal to 85%)	5 (Grade 5: the growth control rate is greater than or equal to 85%)	5 (Grade 5: the growth control rate is greater than or equal to 85%)	1 (Grade 1: the growth control rate is greater than or equal to 5% and less than 20%)	2 (Grade 2: the growth control rate is greater than or equal to 20% and less than 40%)	3 (Grade 3: the growth control rate is greater than or equal to 40% and less than 60%)	4 (Grade 4: the growth control rate is greater than or equal to 60% and less than 85%)	5 (Grade 5: the growth control rate is greater than or equal to 85%)	5 (Grade 5: the growth control rate is greater than or equal to 85%)	2 (Grade 2: the growth control rate is greater than or equal to 20% and less than 40%)	3 (Grade 3: the growth control rate is greater than or equal to 40% and less than 60%)	4 (Grade 4: the growth control rate is greater than or equal to 60% and less than 85%)	4 (Grade 4: the growth control rate is greater than or equal to 60% and less than 85%)	5 (Grade 5: the growth control rate is greater than or equal to 85%)	5 (Grade 5: the growth control rate is greater than or equal to 85%)
O=C1C2=C(CCCC2)C(=O)N1c1cc(OCc2nc(-c3c(F)cccc3F)no2)c(Cl)cc1F [Compound A24]	5 (Grade 5: the growth control rate is greater than or equal to 85%)	5 (Grade 5: the growth control rate is greater than or equal to 85%)	5 (Grade 5: the growth control rate is greater than or equal to 85%)	5 (Grade 5: the growth control rate is greater than or equal to 85%)	5 (Grade 5: the growth control rate is greater than or equal to 85%)	5 (Grade 5: the growth control rate is greater than or equal to 85%)	1 (Grade 1: the growth control rate is greater than or equal to 5% and less than 20%)	2 (Grade 2: the growth control rate is greater than or equal to 20% and less than 40%)	3 (Grade 3: the growth control rate is greater than or equal to 40% and less than 60%)	4 (Grade 4: the growth control rate is greater than or equal to 60% and less than 85%)	5 (Grade 5: the growth control rate is greater than or equal to 85%)	5 (Grade 5: the growth control rate is greater than or equal to 85%)	2 (Grade 2: the growth control rate is greater than or equal to 20% and less than 40%)	3 (Grade 3: the growth control rate is greater than or equal to 40% and less than 60%)	4 (Grade 4: the growth control rate is greater than or equal to 60% and less than 85%)	4 (Grade 4: the growth control rate is greater than or equal to 60% and less than 85%)	5 (Grade 5: the growth control rate is greater than or equal to 85%)	5 (Grade 5: the growth control rate is greater than or equal to 85%)
O=C1C2=C(CCCC2)C(=O)N1c1cc(OCc2nc(-c3ccccc3)no2)c(Cl)cc1F [Compound A25]	5 (Grade 5: the growth control rate is greater than or equal to 85%)	5 (Grade 5: the growth control rate is greater than or equal to 85%)	5 (Grade 5: the growth control rate is greater than or equal to 85%)	5 (Grade 5: the growth control rate is greater than or equal to 85%)	5 (Grade 5: the growth control rate is greater than or equal to 85%)	5 (Grade 5: the growth control rate is greater than or equal to 85%)	1 (Grade 1: the growth control rate is greater than or equal to 5% and less than 20%)	2 (Grade 2: the growth control rate is greater than or equal to 20% and less than 40%)	3 (Grade 3: the growth control rate is greater than or equal to 40% and less than 60%)	4 (Grade 4: the growth control rate is greater than or equal to 60% and less than 85%)	5 (Grade 5: the growth control rate is greater than or equal to 85%)	5 (Grade 5: the growth control rate is greater than or equal to 85%)	2 (Grade 2: the growth control rate is greater than or equal to 20% and less than 40%)	3 (Grade 3: the growth control rate is greater than or equal to 40% and less than 60%)	4 (Grade 4: the growth control rate is greater than or equal to 60% and less than 85%)	4 (Grade 4: the growth control rate is greater than or equal to 60% and less than 85%)	5 (Grade 5: the growth control rate is greater than or equal to 85%)	5 (Grade 5: the growth control rate is greater than or equal to 85%)
